# Results as given in patent publication US9737583B2, “Composition for prevention or treatment of acute renal failure including herbal extract or fraction thereof as active ingredient” (KOREA INSTITUTE OF ORIENTAL MEDICINE, priority 2012, dated 2017).
# Assays:
# Format in all cases: cell-based
# renal cells [1] = test: MTT assay, cell viability of renal cells with or without cisplatin
# Method: To measure cell viability of renal cells by the Amomi Rotundus Fructus extract and the fraction thereof, MTT assay was performed. First, renal cells were seeded at a density of 1×10^4 cells per well of 96-well plate. After 24 hours, the cells were treated with each 50 μg thereof which was prepared by dilution at three final concentrations (50, 100, 200 μg/ml). After 2 hours, cisplatin was treated at a final concentration of 25 μg/ml, and cells were cultured for 24 hours. After 24 hours, 10 μl of the assay reagent of EZ-Cytox Cell Viability assay kit was added to each well using a Micro multi Pipette, taking care to introduce no bubbles, and reaction was allowed for 4 hours under basic culture conditions. Absorbance at 450 nm was measured. p<0.005 was considered statistically significant.
# renal cells [2] = test: Measurement of ROS generation (DCF-DA); settings: single treatment, after 24 hours; based on 100% ROS generation of the control group; FIGS. 4a to 4e
# Method: In order to measure antioxidant effect of the Amomi Rotundus Fructus extract and the fraction thereof in renal cells, ROS generation test was performed. First, renal cells were seeded at a density of 1×10^5 cells per well of 96-well plate. After 24 hours, the cells were pre-treated with 100 μg of the Amomi Rotundus Fructus extract. 2 hours after treatment, cisplatin was treated at a final concentration of 25 μg/ml, followed by culture for 24 hours. DCF-DA dissolved in PBS was treated in the dark according to the treatment concentration of DCF-DA and the reaction time which were determined by historical data and preliminary experiment, and reaction was allowed for 5 hours under basic culture conditions. At the time point of 0, 4, 8, 12, 16, 20, 24 hr, end-point fluorescence wavelength at Ex: 485 nm and Em: 528 nm was measured at S=50.
# renal cells [3] = test: Measurement of GSH content; settings: single treatment of cisplatin, culture 24 hours; FIGS. 5a to 5e
# Method: Because GSH level is known as an index to evaluate a cell-protecting effect on drug-induced cellular injury, GSH level was measured to examine the cell-protecting effect of the Amomi Rotundus Fructus extract or the fraction thereof against cisplatin. The GSH levels were determined by monochlorobimane, and experiments for measuring GSH content were performed using the kidney tissues with reference to the conventional method of Fernandez-Checa and Kaplowitz. The number of cells, in which GSH is detectable, was determined by historical data and preliminary experiment, and 2×10^6 cells were seeded to each well of culture plate. After culture for 24 hours, the dilution fold of the final concentration of the drug determined as an active drug was considered and calculated, based on the results of MTT Assay and crystal violet Assay. […] Centrifugation was carried out at 10,000 rpm for 15 minutes, and then the supernatant was collected and used for BCA protein quantification. […] End-point fluorescence wavelength at Ex: 360 nm and Em: 460 nm was measured at S=70. Data of the experimental results were analyzed using Microsoft Excel program, and post-test analysis using Bonferroni multiple comparison test was performed to investigate the differences between the groups. p<0.001 was considered statistically significant.
# p53 = test: Examination of p53 expression pattern (western blot); settings: single treatment of cisplatin; FIG. 6
# Method: Cells treated with Amomi Rotundus Fructus extract and/or cisplatin were harvested, and RIPA buffer was added thereto, followed by sonication for cell lysis. Centrifugation was performed at 15,000 rpm for 15 minutes, and the supernatant was obtained, and subjected to protein quantification by BCA assay. The protein was loaded at an amount of 20 μg/10 μl in each well, and 12% SDS-PAGE polyacrylamide gel electrophoresis was performed, and transferred to a nitrocellulose membrane. The membrane was blocked with 5% Skim milk-TBST, and then treated with primary antibody (anti-p53/dilution-1:300). p53 was detected with HRP conjugated anti-mouse IgG (dilution-1:5000) and immune reaction was visualized by ECL. The measurement results are shown as Mean±S.E.M. (standard error of mean) in FIG. 6. Data of the experimental results were analyzed using Microsoft Excel program, and post-test analysis using Bonferroni multiple comparison test was performed to investigate the differences between the groups. p<0.001 was considered statistically significant, and expressed as *; p<0.001 to compare with cisplatin.
smiles,measurement,setting,value
"N.N.[Cl][Pt][Cl] [cisplatin, cis-diaminedichloroplatinum II]",cell viability,"renal cells [1]; pre-treatment 50, 100, 200 μg/ml, cisplatin 25 μg/ml after 2 hours, culture 24 hours, based on 100% cell viability of the control group, FIGS. 2a to 2e",remarkably reduced
same,cell activity,"renal cells [1]; single treatment, based on 100% cell activity of the control group, FIGS. 3a to 3e",≤ 40%
same,ROS generation,renal cells [2],≥ 170%
same,GSH content,renal cells [3],reduced
same,p53 expression level,p53,remarkably increased
